# Reference: article PMC7534311, “Sulphonamide inhibition profile of Staphylococcus aureus β-carbonic anhydrase” (Journal of Enzyme Inhibition and Medicinal Chemistry, 2020)
# Like-named read-outs stand apart in the source and are kept apart here.
# Columns and labels:
# [1] = molecular target: T1, SauBCA (β-carbonic anhydrase from Staphylococcus aureus) (Staphylococcus aureus, UniProt A0AAJ4SIE8); test: Stopped-flow CO2 hydration inhibition assay, SauBCA; type: biochemical
# T1 sequence (A0AAJ4SIE8 1-189): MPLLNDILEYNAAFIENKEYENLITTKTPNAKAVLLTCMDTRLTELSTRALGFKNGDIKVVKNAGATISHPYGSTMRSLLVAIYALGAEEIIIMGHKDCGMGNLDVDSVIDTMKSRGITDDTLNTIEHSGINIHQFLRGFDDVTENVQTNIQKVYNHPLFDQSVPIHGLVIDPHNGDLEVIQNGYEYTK
# Description: An Applied Photophysics stopped-flow instrument was used for assaying CA-catalysed CO2 hydration activity. […] Six traces of the initial 5 − 10% of the reaction were used to determine the initial velocity. The uncatalysed rates were determined in the same manner and subtracted from the total observed rates. A stock solution of inhibitor (0.1 mM) was prepared in distilled-deionized water, and dilutions of up to 0.01 nM were prepared thereafter with distilled-deionized water. Inhibitor (I) and enzyme (E) solutions were preincubated together for 15 min at RT prior to the assay to allow formation of the E − I complex. Inhibition constants were obtained by using the Cheng-Prusoff equation and nonlinear least squares methods (with PRISM 3) and are presented as the means from at least three different determinations. Kinetic constants were obtained using Lineweaver-Burke plots as reported earlier.
# hCA II = settings: human recombinant isozyme, Table 2; cited from earlier work
# [2] = recombinant SauBCA, stopped-flow CO2 hydration, mean from three assays, errors ±5–10%, read-out: Ki SauBCA
Structure (SMILES),"Ki [1, 2] [nM]",further results
Nc1ccc(S(=O)(=O)Nc2nnc(S(N)(=O)=O)s2)cc1 [compound 20],92,–
"Cc1ccc(-c2cc(C(F)(F)F)nn2-c2ccc(S(N)(=O)=O)cc2)cc1 [CLX, celecoxib]",–,Ki ([1]; read-out: Ki SauBCA): 871 nM
Cc1onc(-c2ccccc2)c1-c1ccc(S(N)(=O)=O)cc1 [VLX],–,Ki ([1]; read-out: Ki SauBCA): 509 nM
Cc1ccc(S(N)(=O)=O)cc1 [compound 4],83,–
"NS(=O)(=O)NCCNc1nonc1C(=NO)Nc1ccc(F)c(Br)c1 [EPA, epacadostat]",538,Ki (hCA II): 917 nM
Nc1ccc(S(=O)(=O)NCCc2ccc(S(N)(=O)=O)cc2)cc1 [compound 24],96,–
Nc1nnc(S(N)(=O)=O)s1 [compound 13],417,–
Nc1ccc(S(N)(=O)=O)cc1 [compound 2],–,"Ki ([1]; Ki SauBCA, recombinant SauBCA, stopped-flow CO2 hydration, mean from three assays, errors ±5–10%): 409 nM"
Nc1ccc(S(N)(=O)=O)cc1Cl [compound 8],95,–
Nc1ccc(S(=O)(=O)NCc2ccc(S(N)(=O)=O)cc2)cc1 [compound 23],92,–
"CC(=O)/N=c1/sc(S(N)(=O)=O)nn1C [MZA, methazolamide]",–,Ki ([1]; read-out: Ki SauBCA): 863 nM
NCc1ccc(S(N)(=O)=O)cc1 [compound 5],193,–
Nc1ccc(S(N)(=O)=O)cc1Br [compound 9],75,–
NS(=O)(=O)c1ccc(CCNS(=O)(=O)c2ccc([N+](=O)[O-])cc2CO)cc1 [compound 21],85,–
"NC(N)=Nc1nc(CSCCC(N)=NS(N)(=O)=O)cs1 [FAM, famotidine]",–,Ki (hCA II): 58 nM
"CCN[C@H]1CN(CCCOC)S(=O)(=O)c2sc(S(N)(=O)=O)cc21 [BRZ, brinzolamide]",–,Ki ([1]; read-out: Ki SauBCA): 815 nM
NS(=O)(=O)c1ccc(CO)cc1 [compound 16],603,–
Nc1ccc(S(=O)(=O)Nc2ccc(S(N)(=O)=O)cc2)cc1 [compound 22],83,–
Nc1nccc(Nc2ccc(S(N)(=O)=O)cc2)n1 [compound 19],–,Ki ([1]; read-out: Ki SauBCA): 909 nM
O=C1NS(=O)(=O)c2ccccc21 [SAC],667,–
NS(=O)(=O)c1cc(Cl)cc(Cl)c1O [compound 10],202,–
"NS(=O)(=O)Cc1noc2ccccc12 [ZNS, zonisamide]",–,Ki ([1]; read-out: Ki SauBCA): 4550 nM
CC1(C)O[C@@H]2[C@@H](CO[C@@]3(COS(N)(=O)=O)OC(C)(C)O[C@@H]23)O1 [TPM],–,Ki ([1]; read-out: Ki SauBCA): 466 nM
NS(=O)(=O)c1cccc(S(N)(=O)=O)c1 [compound 3],95,–
